From patent US20240342320A1, “POLYPEPTIDE TARGETING INTEGRIN ALPHA 6 AND USE THEREOF” (GUANGZHOU GENBIONOVA MEDICAL TECHNOLOGY CO., LTD., priority 2021, published 2024)
Read-outs that look alike come from different tables or passages of the source. Positions of bridges follow the written chain, without caps; N, C: chain ends. Non-standard residues stand in square brackets, D forms with d. Residues, ends and D or L forms follow the SMILES beside them. Primed or numbered codes have the meaning given here. No end group written: not given here. FITC′ = not defined here; PEG4′ = not defined here

What was measured:
[1] = test system: Hep3B cells; experiment: Flow cytometry affinity assay to Hep3B cells that do not express integrin α6; assay type: cell-based, human; details: FITC flow cytometry; Hep3B does not express integrin α6
Method: (§1) The expression of integrin α6 and β4 in human hepatoma cells HCCLM3, human hepatoma cells Huh-7, human hepatoma cells Hep3B, human nasopharyngeal carcinoma cells S18 and human breast cancer cells MDA-MB-231 were detected by flow cytometry. […] Integrin β4 is expressed in HCCLM3, S18 and MDA-MB-231 cells (FIG. 3F, FIG. 3G, FIG. 3I, FIG. 3J). […] Each cell had 3 duplicate wells. • 2) 2 μl of 1 mM RWYD-PEG4-K-FITC (structural formula shown in FIG. 1B, referred to as RD) or CRWYDENAC-PEG4-K-FITC (referred to as RWY) was added into cells, mixed well, and incubate in an incubator at 37° C. for 2 hours. • 3) The culture medium containing polypeptides was absorbed and removed, the cells were washed with PBS for 3 times, 500 μl/time. • 4) The cells were digested with trypsin, resuspended with medium and centrifuged at 300 g for 5 minutes. • 5) The supernatant was discarded and cell precipitation was preserved, and the cells were resuspended with 500 μl saline and placed into the flow tube. • 6) The FITC channel was detected by flow machine and the results were analyzed by CytExpert.
(§2) RWYD-PEG4 forms dimers or polyploids via lysine (K) ligations. Flow cytometry was used to detect expression of integrin α6 in tumor cells. […] The specific operation of affinity assay of tumor cells to RD2 is similar to that of “affinity assay of tumor cells to RD”.

[2] = test system: tumor cells with high integrin α6 expression (HCCLM3, Huh-7, S18, MDA-MB-231; also HT29, KYSE30, SW620, SW1990 for RD2); experiment: Affinity of RD/RD2 to tumor cells with high integrin α6 expression by flow cytometry; assay type: cell-based, human; details: FITC probes, 37° C., 2 hours
Method: as §1, §2

[3] = test system: Hep3B cells; experiment: Affinity of RD/RD2 to Hep3B cells (no integrin α6 expression) by flow cytometry; assay type: cell-based, human; details: FITC probes, 37° C., 2 hours
Method: as §1, §2

[4] = test system: tumor cells with high integrin α6 expression; experiment: Flow cytometry affinity assay to tumor cells with high integrin α6 expression; assay type: cell-based, human
Method: as §1, §2

[5] = target: T1, integrin α6β4 (Homo sapiens, UniProt P23229); experiment: Microscale thermophoresis (MST) affinity to integrin α6β4; assay type: binding; details: relative to CRWYDENAC (RWY) = 1.00
T1 sequence (P23229 24-1050 limits assumed): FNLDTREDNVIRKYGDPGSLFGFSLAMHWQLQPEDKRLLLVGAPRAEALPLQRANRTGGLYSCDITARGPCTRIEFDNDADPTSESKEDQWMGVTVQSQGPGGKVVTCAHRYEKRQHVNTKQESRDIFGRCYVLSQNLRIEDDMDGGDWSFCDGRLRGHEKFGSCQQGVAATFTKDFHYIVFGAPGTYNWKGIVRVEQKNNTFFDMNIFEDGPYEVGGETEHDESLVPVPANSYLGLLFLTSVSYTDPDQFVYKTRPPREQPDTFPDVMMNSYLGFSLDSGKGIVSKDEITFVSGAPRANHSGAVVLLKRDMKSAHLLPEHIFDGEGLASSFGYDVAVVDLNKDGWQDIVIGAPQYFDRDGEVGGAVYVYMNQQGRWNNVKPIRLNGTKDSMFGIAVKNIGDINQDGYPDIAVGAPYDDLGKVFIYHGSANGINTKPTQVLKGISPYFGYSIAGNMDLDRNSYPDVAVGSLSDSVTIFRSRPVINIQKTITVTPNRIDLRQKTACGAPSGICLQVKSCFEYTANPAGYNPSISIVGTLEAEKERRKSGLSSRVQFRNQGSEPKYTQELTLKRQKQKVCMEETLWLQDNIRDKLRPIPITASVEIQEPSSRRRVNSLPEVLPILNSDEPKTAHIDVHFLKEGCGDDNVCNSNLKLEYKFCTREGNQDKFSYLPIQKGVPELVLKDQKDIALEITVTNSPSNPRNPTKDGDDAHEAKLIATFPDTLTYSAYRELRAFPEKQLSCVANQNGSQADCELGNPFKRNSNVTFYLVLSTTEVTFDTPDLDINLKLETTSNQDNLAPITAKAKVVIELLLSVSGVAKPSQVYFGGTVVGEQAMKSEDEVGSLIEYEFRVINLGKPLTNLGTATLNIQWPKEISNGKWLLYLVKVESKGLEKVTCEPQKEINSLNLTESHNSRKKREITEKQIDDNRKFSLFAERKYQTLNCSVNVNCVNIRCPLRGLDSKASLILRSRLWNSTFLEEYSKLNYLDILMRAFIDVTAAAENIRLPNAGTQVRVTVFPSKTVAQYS
T1 sequence (P16144 28-710 partner limits assumed): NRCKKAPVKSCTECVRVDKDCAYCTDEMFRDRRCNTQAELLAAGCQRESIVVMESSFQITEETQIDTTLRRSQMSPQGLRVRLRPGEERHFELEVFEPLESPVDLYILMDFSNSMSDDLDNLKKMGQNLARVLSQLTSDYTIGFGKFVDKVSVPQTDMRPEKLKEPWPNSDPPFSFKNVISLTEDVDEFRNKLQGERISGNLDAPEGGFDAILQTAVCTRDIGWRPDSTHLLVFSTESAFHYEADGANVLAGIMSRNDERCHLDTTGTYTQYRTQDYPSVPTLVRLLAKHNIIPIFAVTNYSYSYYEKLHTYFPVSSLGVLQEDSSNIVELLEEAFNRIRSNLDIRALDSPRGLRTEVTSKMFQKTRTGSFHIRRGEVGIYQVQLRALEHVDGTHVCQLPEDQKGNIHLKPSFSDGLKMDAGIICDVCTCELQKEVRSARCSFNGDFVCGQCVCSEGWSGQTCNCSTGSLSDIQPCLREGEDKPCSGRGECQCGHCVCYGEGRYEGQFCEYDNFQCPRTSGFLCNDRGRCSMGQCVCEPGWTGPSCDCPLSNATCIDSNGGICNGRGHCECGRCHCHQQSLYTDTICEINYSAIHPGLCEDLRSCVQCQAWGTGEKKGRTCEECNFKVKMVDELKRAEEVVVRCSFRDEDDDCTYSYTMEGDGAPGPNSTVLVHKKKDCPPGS
Method: (§3) The affinity between these 18 polypeptides and integrin α6β4 was detected by microscale thermophoresis (MST) method as follows: • 1) Integrin α6β4 protein was dissolved to 800 nM, and polypeptide was dissolved to 100 μM. • 2) A RED-tris-NTA second-generation dye was diluted to 100 nM by using the MO series RED-tris-NTA protein labeling kit. • 3) 100 μl α6β4 protein was mixed with 50 μl dye and incubated at room temperature for 30 min, so that the α6β4 protein binds to the dye. • 4) 10 μl polypeptide was transferred into a PCR tube, and was diluted with PBST (containing 0.05% Tween 20) at a ratio of 1:1 to 16 gradients of concentrations. • 5) 3 μl protein/dye mixture was transferred into a PCR tube, 3 μl of 16 different concentrations of polypeptides was respectively added and mixed well. • 6) The mixture was absorbed by capillary and loaded on machine (instrument model Monolith NT.115) to assay, parameters were set as 80% LED/excitation power and medium MST power. • 7) MO. Affinity Analysis software was used to calculate the equilibrium dissociation constant KD between α6β4 protein and polypeptide by KD fitting mode.

[6] = target: T2, integrin α6β4 (Homo sapiens, UniProt P16144+P23229); experiment: as above; assay type: binding; details: MST
T2 sequence (P23229 24-1050 limits assumed): T1 sequence (P23229 24-1050 limits assumed)
T2 sequence (P16144 28-710 partner limits assumed): T1 sequence (P16144 28-710 partner limits assumed)
Method: as §3

[7] = integrin α6β4, determination 1, read-out: KD (um) 1
[8] = integrin α6β4, determination 2, read-out: KD (um) 2
[9] = integrin α6β4, determination 3, read-out: KD (um) 3
[10] = integrin α6β4, mean of 3, read-out: KD Mean value (μm)

Molecule | Affinity relative to RWY [5] | Kd [6, 7] [µM] | Kd [6, 8] [µM] | Kd [6, 9] [µM] | Kd [6, 10] [µM] | also measured
CRWYDENAC-PEG4-K-FITC (CRWYDENAC[PEG4′]K-{FITC′}; disulfide 1-9 (inferred)) [reference compound] [listing 1 of 2 here] | – | – | – | – | – | Affinity to Hep3B cells, RD versus RWY [1]: consistent
RWYD-PEG4-K-FITC [RD] [listing 1 of 2 here] | – | – | – | – | – | affinity to tumor cells [2]: stronger affinity to tumor cells with high integrin α6 expression than RWY; affinity to Hep3B cells [3]: consistent with Hep3B cells
CRWYDENAC-PEG4-K-FITC (CRWYDENAC[PEG4′]K-{FITC′}; disulfide 1-9 (inferred)) [reference compound] [listing 2 of 2 here] | – | – | – | – | – | affinity to Hep3B cells [3]: consistent with Hep3B cells
(RWYD-PEG4)2-K-K-FITC (not fully specified) [FITC-labeled RWYD dimer] | – | – | – | – | – | Affinity to tumor cells with high integrin α6 expression compared with RWYD-PEG4-K-FITC ([4]; HCCLM3, S18, HT29, Huh7, MDA-MB-231, KYSE30, SW620, SW1990): stronger affinity
C[C@@H]1NC(=O)[C@H](CC(N)=O)NC(=O)[C@H](CCC(=O)O)NC(=O)[C@H](CC(=O)O)NC(=O)[C@H](Cc2ccc(O)cc2)NC(=O)[C@H](C)NC(=O)[C@H](CCCNC(=N)N)NC(=O)[C@@H](N)CSSC[C@@H](C(=O)O)NC1=O [P3, CRAYDENAC] (H-CRAYDENAC-OH; disulfide 1-9; N-terminus and C-terminus assumed) | 0.52 | 14.4 | 11.8 | 13.8 | 13.3 | –
C[C@@H]1NC(=O)[C@H](CC(N)=O)NC(=O)[C@H](C)NC(=O)[C@H](CC(=O)O)NC(=O)[C@H](Cc2ccc(O)cc2)NC(=O)[C@H](Cc2c[nH]c3ccccc23)NC(=O)[C@H](CCCNC(=N)N)NC(=O)[C@@H](N)CSSC[C@@H](C(=O)O)NC1=O [P6, CRWYDANAC] (H-CRWYDANAC-OH; disulfide 1-9; N-terminus and C-terminus assumed) | 1.61 | 1.21 | 7.99 | 3.83 | 4.34 | –
(RWYD-PEG4)2-K-K-FITC (not fully specified) [RD2] | – | – | – | – | – | affinity to tumor cells [2]: stronger affinity to tumor cells with high integrin α6 expression
RWYD-PEG4-K-FITC [RD] [listing 2 of 2 here] | – | – | – | – | – | Affinity to tumor cells with high integrin α6 expression compared with RWY ([4]; FITC flow cytometry, HCCLM3, Huh7, S18, MDA-MB-231, 37° C., 2 hours): stronger affinity; Affinity to Hep3B cells, RD versus RWY [1]: consistent
C[C@@H]1NC(=O)[C@H](CC(N)=O)NC(=O)[C@H](CCC(=O)O)NC(=O)[C@H](CC(=O)O)NC(=O)[C@H](Cc2ccc(O)cc2)NC(=O)[C@H](Cc2c[nH]c3ccccc23)NC(=O)[C@H](C)NC(=O)[C@@H](N)CSSC[C@@H](C(=O)O)NC1=O [P2, CAWYDENAC] (H-CAWYDENAC-OH; disulfide 1-9; N-terminus and C-terminus assumed) | 1.06 | 4.03 | 12.1 | 3.58 | 6.58 | –
C[C@H](NC(=O)[C@H](CC(N)=O)NC(=O)[C@H](C)NC(=O)[C@H](CC(=O)O)NC(=O)[C@H](Cc1ccc(O)cc1)NC(=O)[C@H](Cc1c[nH]c2ccccc12)NC(=O)[C@@H](N)CCCNC(=N)N)C(=O)O [P10, RWYDANA] (H-RWYDANA-OH; N-terminus and C-terminus assumed) | 0.23 | 62.1 | 17.5 | 12.4 | 30.6 | –
N=C(N)NCCC[C@H](N)C(=O)N[C@@H](Cc1c[nH]c2ccccc12)C(=O)N[C@@H](Cc1ccc(O)cc1)C(=O)N[C@@H](CC(=O)O)C(=O)N[C@@H](CCC(=O)O)C(=O)N[C@@H](CC(N)=O)C(=O)O [P9, RWYDEN] (H-RWYDEN-OH; N-terminus and C-terminus assumed) | 0.66 | 9.69 | 8.73 | 13.1 | 10.5 | –
